Measurements from patent publication US20210084900A1, “Substituted 5-(haloalkyl)-5-hydroxy-isoxazoles for Combating Phytopathogenic Fungi” (BASF SE, priority 2017, published 2021).

Assays:
[1] = test system: Phakopsora pachyrhizi; assay: Protective control of soy bean rust on soy beans, inoculation 1 day after spraying (glass house trial 2); assay type: in vivo; conditions: 600 ppm, protective (1 day), untreated plants 100% diseased leaf area
Protocol: (§1) Spray solutions were prepared in several steps. A mixture was prepared of acetone and/or dimethylsulfoxide and the wetting agent/emulsifier Wettol, which is based on ethoxylated alkylphenoles, in a relation (volume) solvent-emulsifier of 99 to 1 was added to 25 mg of the compound to give a total of 5 ml. Water was then added to a total volume of 100 ml. This stock solution was diluted with the described solvent-emulsifier-water mixture to the given concentration.
2. Protective Control of Soy Bean Rust on Soy Beans Caused by Phakopsora pachyrhizi
Leaves of pot-grown soy bean seedlings were sprayed to run-off with an aqueous suspension, containing the concentration of active ingredient or their mixture as described below. The plants were allowed to air-dry. The trial plants were cultivated for 1 day in a greenhouse chamber at 23 to 27° C. and a relative humidity between 60 and 80%.Then the plants were inoculated with spores of Phakopsora pachyrhizi. To ensure the success the artificial inoculation, the plants were transferred to a humid chamber with a relative humidity of about 95% and 20 to 24° C. for 24 hours. The trial plants were cultivated for fourteen days in a greenhouse chamber at 23 to 27° C. and a relative humidity between 60 and 80%. The extent of fungal attack on the leaves was visually assessed as % diseased leaf area.

[2] = test system: Sclerotinia sclerotiorum; assay: Preventative fungicidal control of rape stem rot on soy beans (glass house trial 5); assay type: in vivo; conditions: 300 ppm, soy bean, untreated plants 90% diseased leaf area
Protocol: as §1
5. Preventative Fungicidal Control of Rape Stem Rot on Soy Beans Caused by (Sclerotinia scierotiorum
Young seedlings of soy beans were grown in pots. These plants were sprayed to run-off with an aqueous suspension, containing the concentration of active ingredient or mixture mentioned in the table below. The next day the treated plants were inoculated: Rye and millet grains were infected with Sclerotinia sclerotiorum. After the infection the grains were air dried for a week. The grains were powdered with a mixer. A small amount of powder was brought onto the soy bean (leaves). Then the trial plants were cultivated for 7 days in a greenhouse chamber at 23° C. and a relative humidity between 80 an 85%. The extent of fungal attack on the leaves was visually assessed with a classification method: 0, 33, 50, 67 and 100% disease of leaf area and stem.

[3] = test system: Puccinia recondita; assay: Preventative control of brown rust on wheat (glass house trial 6); assay type: in vivo; conditions: 300 ppm, preventative (inoculation 7 days after spraying), untreated plants 100% diseased leaf area
Protocol: as §1
6. Preventative Control of Brown Rust on Wheat Caused by Puccinia recondita
The first two developed leaves of pot-grown wheat seedling were sprayed to run-off with an aqueous suspension, containing the concentration of active ingredient or their mixture as described below. Seven days later the plants were inoculated with spores of Puccinia recondita. To ensure the success the artificial inoculation, the plants were transferred to a humid chamber without light and a relative humidity of 95 to 99% and 20 to 24° C. for 24 hours. Then the trial plants were cultivated for 6 days in a greenhouse chamber at 20 to 24° C. and a relative humidity between 65 and 70%. The extent of fungal attack on the leaves was visually assessed as % diseased leaf area.

Row | melting point [°C] | SMILES | diseased leaf area [1] [%] | diseased leaf area [2] [%] | diseased leaf area [3] [%]
1 |  | CN(C(=O)c1ccc(C2=NOC(O)(C(F)(F)F)C2)cc1)c1ccccc1 (centres unmarked) [Ex-2] | 0 | 0 | 
2 | 207 | O=C(NCc1ccc(C2=NOC(O)(C(F)(F)F)C2)cc1)C1CC1 (centres unmarked) [Ex-4, N-[[4-[5-hydroxy-5-(trifluoromethyl)-4H-isoxazol-3-yl]phenyl]methyl]cyclopropanecarboxamide] |  |  | 
3 | 217 | O=C(Nc1ccccc1)c1ccc(C2=NOC(O)(C(F)(F)F)C2)cc1 (centres unmarked) [Ex-7, 4-[5-Hydroxy-5-(trifluoromethyl)-4H-isoxazol-3-yl]-N-phenyl-benzamide] |  |  | 
4 |  | COC1(C(F)(F)F)CC(c2ccc(CN(C)C(=O)C3CC3)cc2)=NO1 (centres unmarked) [Ex-13] | 0 |  | 
5 |  | CN(Cc1ccc(C2=NOC(O[Si](C)(C)C)(C(F)(F)F)C2)cc1)C(=O)C1CC1 (centres unmarked) [Ex-14] | 0 |  | 
6 |  | CC(=O)OC1(C(F)(F)F)CC(c2ccc(CN(C)C(=O)C3CC3)cc2)=NO1 (centres unmarked) [Ex-15] | 0 | 0 | 12
7 |  | CC(=O)OC1(C(F)(F)F)CC(c2ccc(CNC(=O)C3CC3)cc2)=NO1 (centres unmarked) [Ex-18] | 0 | 0 | 
8 |  | COC1(C(F)(F)F)CC(c2ccc(CNC(=O)C3CC3)cc2)=NO1 (centres unmarked) [Ex-19] | 0 |  | 
9 |  | O=C(Nc1ccccc1)c1ccc(C2=NOC(OC(=O)N3CCCC3)(C(F)(F)F)C2)cc1 (centres unmarked) [Ex-26] |  | 0 | 
10 |  | O=C(Nc1ccccc1)c1ccc(C2=NOC(OC(=O)N3CCOCC3)(C(F)(F)F)C2)cc1 (centres unmarked) [Ex-27] |  | 0 | 
11 |  | O=C(Nc1ccccc1)c1ccc(C2=NOC(OC(=O)C3CCCO3)(C(F)(F)F)C2)cc1 (centres unmarked) [Ex-28] | 0 | 0 | 
12 |  | CCOCC(=O)OC1(C(F)(F)F)CC(c2ccc(C(=O)Nc3ccccc3)cc2)=NO1 (centres unmarked) [Ex-30] | 0 | 0 | 
13 |  | CC(C)CC(=O)OCOC1(C(F)(F)F)CC(c2ccc(C(=O)Nc3ccccc3)cc2)=NO1 (centres unmarked) [Ex-40] | 0 |  | 
14 |  | CNC(=O)c1ccc(C2=NOC(OC(=O)C3CC3)(C(F)(F)F)C2)cc1 (centres unmarked) [Ex-42] | 0 |  | 
